In ChEMBL document CHEMBL1201862, “PubChem BioAssay data set” (2004):
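Values below derive from 48-hour exposures of cells grown in 96-well plates, with endpoints linearly interpolated between the two concentrations bracketing the appropriate inhibition level. Here, GI50 denotes the concentration required for 50% inhibition of growth.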 Active and inactive are the calls of the source. No stated cut-off is given here; in the data, active = GI50 up to about 1.1 µM and inactive = higher.

What was measured:
Experiment in all cases: NCI tumour cell line growth inhibition, 48 h
A498 = test system: A498
ACHN = test system: ACHN
CAKI-1 = test system: CAKI-1
COLO 205 = test system: COLO 205
DLD-1 = test system: DLD-1
HCT-116 = test system: HCT-116
HCT-15 = test system: HCT-15
K562 = test system: K562
MOLT-4 = test system: MOLT-4
Malme-3M = test system: Malme-3M
NCI-H226 = test system: NCI-H226
NCI-H522 = test system: NCI-H522
SF-539 = test system: SF-539
SK-OV-3 = test system: SK-OV-3
UO-31 = test system: UO-31
KM12 = test system: KM12
SR = test system: SR
MCF7 = test system: MCF7
NCI/ADR-RES = test system: NCI/ADR-RES
PC-3 = test system: PC-3

Row | Structure (SMILES) | GI50 (A498) | GI50 (ACHN) | GI50 (CAKI-1) | GI50 (COLO 205) | GI50 (DLD-1) | GI50 (HCT-116) | GI50 (HCT-15) | GI50 (K562) | GI50 (MOLT-4) | GI50 (Malme-3M) | GI50 (NCI-H226) | GI50 (NCI-H522) | GI50 (SF-539) | GI50 (SK-OV-3) | GI50 (UO-31) | GI50 (KM12) | GI50 (SR) | GI50 (MCF7) | GI50 (NCI/ADR-RES) | GI50 (PC-3)
1 | CCOC(=O)C(=O)C(C#N)c1ccc(Cl)cc1 (stereo unspecified) | > 100 µM (inactive) | > 100 µM (inactive) | > 100 µM (inactive) | > 100 µM (inactive) | > 100 µM (inactive) | > 100 µM (inactive) | > 100 µM | > 100 µM (inactive) | > 100 µM (inactive) | > 100 µM (inactive) | 62.4 µM (inactive) | > 100 µM (inactive) | > 100 µM (inactive) | > 100 µM (inactive) | 88.1 µM (inactive) | – | – | – | – | –
2 | CC(=O)NC1=C(NCc2ccc(Cl)cc2)C(=O)c2ccccc2C1=O | – | 1.84 µM (inactive) | – | 5.4 µM (inactive) | 6.76 µM (inactive) | 3.12 µM (inactive) | 5.57 µM | 2.46 µM (inactive) | 2.38 µM (inactive) | 9.4 µM (inactive) | 9.59 µM (inactive) | 0.986 µM (active) | 4.41 µM (inactive) | 18.2 µM (inactive) | 5.15 µM (inactive) | 8.17 µM (inactive) | 8 µM (inactive) | – | – | –
3 | COc1ccc(C2Oc3cc(OC)c(OC)cc3C2CCl)cc1OC (stereo unspecified) | 73.5 µM (inactive) | > 100 µM (inactive) | > 100 µM (inactive) | > 100 µM (inactive) | 67.5 µM (inactive) | > 100 µM (inactive) | > 100 µM | > 100 µM (inactive) | > 100 µM (inactive) | > 100 µM (inactive) | > 100 µM (inactive) | > 100 µM (inactive) | > 100 µM (inactive) | – | > 100 µM (inactive) | > 100 µM (inactive) | > 100 µM (inactive) | – | – | –
4 | c1ccc(C(c2ccccc2)c2cccnc2)cc1 | > 100 µM (inactive) | > 100 µM (inactive) | > 100 µM (inactive) | > 100 µM (inactive) | > 100 µM (inactive) | > 100 µM (inactive) | > 100 µM | 38.3 µM (inactive) | – | > 100 µM (inactive) | > 100 µM (inactive) | – | > 100 µM (inactive) | > 100 µM (inactive) | 97.9 µM (inactive) | > 100 µM (inactive) | – | – | – | –
5 | N#Cc1c2nc3ccccc3nc2n2ccc3ccccc3c12 | – | > 100 µM (inactive) | – | > 100 µM (inactive) | > 100 µM (inactive) | 54 µM (inactive) | > 100 µM | > 100 µM (inactive) | > 100 µM (inactive) | > 100 µM (inactive) | > 100 µM (inactive) | > 100 µM (inactive) | > 100 µM (inactive) | > 100 µM (inactive) | > 100 µM (inactive) | 32.4 µM (inactive) | – | – | – | –
6 | Cc1cc(C)nc(NS(=O)(=O)c2ccc(NC(=O)c3ccc(Cl)c4c(Nc5ccc(S(=O)(=O)N=C(N)N)cc5)c5ccccc5nc34)cc2)n1 | > 100 µM (inactive) | > 100 µM (inactive) | > 100 µM (inactive) | 61.5 µM (inactive) | 7.67 µM (inactive) | 24 µM (inactive) | – | 19 µM (inactive) | 19.5 µM (inactive) | > 100 µM (inactive) | > 100 µM (inactive) | 16.1 µM (inactive) | 34 µM (inactive) | > 100 µM (inactive) | > 100 µM (inactive) | 37.9 µM (inactive) | – | – | – | –
7 | O=C(CC1(O)C(=O)Nc2c(Cl)cc(Cl)cc21)c1ccc2ccccc2c1 (stereo unspecified) | 11.3 µM (inactive) | 14.4 µM (inactive) | 5.7 µM (inactive) | 8.79 µM (inactive) | 11.6 µM (inactive) | – | 3.62 µM | 3.18 µM (inactive) | 6.24 µM (inactive) | 6.53 µM (inactive) | – | 2.92 µM (inactive) | 8.17 µM (inactive) | 10.4 µM (inactive) | 11.5 µM (inactive) | 5.92 µM (inactive) | – | – | – | –
8 | N=C(N)NS(=O)(=O)c1ccc(NCCc2c3ccccc3nc3ccccc23)cc1 | – | > 100 µM (inactive) | 87.1 µM (inactive) | 76 µM (inactive) | > 100 µM (inactive) | 41.9 µM (inactive) | > 100 µM | 51.1 µM (inactive) | 22.8 µM (inactive) | > 100 µM (inactive) | > 100 µM (inactive) | > 100 µM (inactive) | > 100 µM (inactive) | > 100 µM (inactive) | > 100 µM (inactive) | > 100 µM (inactive) | 33.9 µM (inactive) | – | – | –
9 | CC1=C(CO)C(=O)OC(C(C)C2CCC3C4CC5OC56C(O)C(N5CC5)=CC(=O)C6(C)C4CCC23C)C1 (stereo unspecified) | 2.11 µM (inactive) | 5.74 µM (inactive) | – | – | 4.93 µM (inactive) | 3.02 µM (inactive) | 3.46 µM | 3.59 µM (inactive) | 1.95 µM (inactive) | 12.6 µM (inactive) | 14.2 µM (inactive) | 1.67 µM (inactive) | 3.66 µM (inactive) | – | 12.9 µM (inactive) | 2.02 µM (inactive) | 2.77 µM (inactive) | – | – | –
10 | CC[C@H](C)[C@H]1NC(=O)C(C(C)=O)=C1O | > 100 µM (inactive) | > 100 µM (inactive) | > 100 µM (inactive) | > 100 µM (inactive) | 70.3 µM (inactive) | 51.9 µM (inactive) | 79.8 µM | > 100 µM (inactive) | > 100 µM (inactive) | > 100 µM (inactive) | > 100 µM (inactive) | 88.5 µM (inactive) | > 100 µM (inactive) | – | > 100 µM (inactive) | 96.4 µM (inactive) | 58.3 µM (inactive) | – | – | –
11 | CN(C)c1n/c(=N/Cc2ccccc2)ss1 | > 10 µM (inactive) | > 10 µM (inactive) | > 10 µM (inactive) | > 10 µM (inactive) | – | > 10 µM (inactive) | > 10 µM | 3.21 µM (inactive) | 1.81 µM (inactive) | > 10 µM (inactive) | > 10 µM (inactive) | 2.61 µM (inactive) | > 10 µM (inactive) | > 10 µM (inactive) | 9.25 µM (inactive) | > 10 µM (inactive) | 0.587 µM (active) | > 10 µM (inactive) | > 10 µM (inactive) | > 10 µM (inactive)
12 | N=C1OC(c2c[nH]c3ccc(OCc4ccccc4)cc23)C(O)=C1O (stereo unspecified) | 59.2 µM (inactive) | > 100 µM (inactive) | > 100 µM (inactive) | > 100 µM (inactive) | – | > 100 µM (inactive) | > 100 µM | > 100 µM (inactive) | > 100 µM (inactive) | > 100 µM (inactive) | > 100 µM (inactive) | > 100 µM (inactive) | > 100 µM (inactive) | > 100 µM (inactive) | > 100 µM (inactive) | > 100 µM (inactive) | > 100 µM (inactive) | > 100 µM (inactive) | > 100 µM (inactive) | > 100 µM (inactive)
13 | CCCC1NC(C#N)(C#N)C(CCC)NC1(C#N)C#N (stereo unspecified) | 21.7 µM (inactive) | 0.296 µM (active) | 0.0573 µM (active) | < 0.01 µM (active) | – | < 0.0158 µM (active) | 0.105 µM | 0.0589 µM (active) | < 0.0214 µM (active) | 0.0297 µM (active) | 22.1 µM (inactive) | < 0.0105 µM (active) | 0.197 µM (active) | 35.9 µM (inactive) | 0.0787 µM (active) | 9.25 µM (inactive) | < 0.0173 µM (active) | 0.0689 µM (active) | 0.243 µM (active) | 0.318 µM (active)
